These results are taken from patent US20150079207A1, “Method for manufacturing Smilax China L root extract having increased active ingredients and beverage composition containing the extract fordetoxification” (priority 2013, published 2015).

The structures appear in SMILES notation.

What all share (assay type): cell-based
The test system of experiment [1] is HepG2 cells. As to the kind of experiment: Protective effect on hepatotoxicity caused by alcohol (MTT assay). To be noted: 50, 100, 250 μM 2 h, then ethanol at IC50 24 h. As for the experimental part:
The MTT assay was generally described with reference to Evaluation Example 2.
Thereafter, the experimental groups and the control were treated with an aqueous solution of ethanol (50%) at an IC50 concentration, and cultured for 24 hours. After the medium was removed, the experimental groups and the control were treated with a 3-4,5 dimethylthiazol-2,5 diphenyltetrazolium bromide (MTT) reagent, and then cultured for 4 hours. Then, the medium was removed, and the experimental groups and the control were treated with a DMSO reagent, and measured for absorbance at a wavelength of 570 nm using a multi-microplate reader (Thermo scientific). Also, the cell viability was calculated using Equation 1.
In general terms: Formazan colour is commonly taken as a measure of viable cells.

Experiment [2] has as its system HepG2 cells. As to the kind of experiment: Conversion rate of nicotine into cotinine (cotinine quantitative assay). To be noted: HepG2 after 1 mM nicotine; 50, 100, 250 μM (mixture 50, 100 μM); 10-120 min.
Protocol: HepG2 (passage #99-100) cells kindly provided from the Korean Cell Line Bank were sub-cultured, divided into a 96 well plate, and then cultured under conditions of 5% CO2 and 37° C. until the cells reached 100% confluence, and the medium was removed. Thereafter, the HepG2 cells were cultured for a day in a medium containing 1 mM nicotine. […] Subsequently, the cultured cells were dividedly treated with trypsin-EDTA, and detached, and centrifuged to collect a cell pellet. The cell pellet was suspended in 100 μl of PBS, and homogenated for 30 seconds using an ultrasonicator. 100 μl of a 4M sodium acetate buffer (pH 4.7), 40 μl of 1.5M potassium cyanide, 40 μl of 0.4M chloramine T, and 200 μl of 78 mM barbituric acid (in acetone/water (50/50)) were sequentially added to the homogenated cells, mixed for 10 seconds, and then reacted at room temperature for 15 minutes. Then, 40 μl of 1M sodium metabisulfite was added to the reaction mixture to stop the reaction. Then, the reaction mixture was measured for absorbance at a wavelength of 490 nm using a multi-microplate reader (Thermo scientific), and the absorbance of the reaction mixture was quantified by comparison to the standard curve of a cotinine sample.
For experiment [3], the system named is HepG2 cells. As to the kind of experiment: Inhibition of formation of oxidatively damaged adducts caused by nicotine (DCFH-DA assay). To be noted: 50, 100, 250 μM (mixture 50, 100 μM) 2 h, then nicotine at IC50 24 h. From the text:
When non-polar, uncharged DCFH-DA easily enters the cytoplasm through cell membranes, DCFH-DA is converted into 2′,7′-dichlorofluorescin (DCFH) showing no fluorescence by an intracellular enzyme, esterase, and DCFH is then oxidized into 2′,7′-dichlorofluorescein (DCF) showing fluorescence by various active oxygen produced in the cells. Since the measured fluorescence intensity is in proportion to a degree of intracellular oxidation, an effect of the index materials on oxidative damage of liver cells by nicotine was evaluated using the principle.
Thereafter, the experimental groups and the control were treated with nicotine at an IC50 concentration, and cultured for 24 hours. Trypsin-EDTA was divided, and the cells were detached, and treated with a 5 μM DCFH-DA reagent. After 30 minutes, the fluorescence was measured at an excitation wavelength of 488 nm and an emission wavelength of 525 nm using a multi-microplate reader (Thermo scientific).

Experiment [4] relates to HepG2 cells. As to the kind of experiment: Inhibition of formation of oxidatively damaged adducts caused by alcohol (DCFH-DA assay). The following applies: 50, 100, 250 μM 2 h, then ethanol at IC50 24 h. As to the method: The DCFH-DA assay was generally described with reference to Evaluation Example 3.
Thereafter, the experimental groups and the control were treated with ethanol at an IC50 concentration, and cultured for 24 hours. Then, trypsin-EDTA was divided, and the cells were detached, and treated with a 5 μM DCFH-DA reagent. After 30 minutes, the fluorescence was measured at an excitation wavelength of 488 nm and an emission wavelength of 525 nm using a multi-microplate reader (Thermo scientific).

Regarding `Oc1ccc(C=Cc2cc(O)cc(O)c2)cc1` [resveratrol], in experiment [1], the “absorbance (MTT, cell viability) vs alcohol-only control” value was “absorbance increased as the concentration of the index material increased”. In addition, the “cotinine conversion rate vs nicotine-only control” value in experiment [2] is given as “cotinine conversion rate increased”.
For `Oc1cc(O)cc(/C=C/c2ccc(O)cc2O)c1` [oxyresveratrol], in experiment [1], the “absorbance (MTT, cell viability) vs alcohol-only control” value was “absorbance increased as the concentration of the index material increased”. The “cotinine conversion rate vs nicotine-only control” value in experiment [2] is listed as “cotinine conversion rate increased”. Besides, in experiment [3], the “relative DCF fluorescence intensity (oxidatively damaged adducts by nicotine) vs nicotine-only control” value was “relative DCF fluorescence intensity tended to decrease”. The “relative DCF fluorescence intensity (oxidatively damaged adducts by alcohol) vs alcohol-only control” value in experiment [4] is on record as “relative DCF fluorescence intensity tended to decrease”.
